Laboratory results from patent publication US6379670B1, “Methods for treatment of multiple sclerosis using peptide analogs of human myelin basic protein” (Neurocrine Biosciences, Inc., priority 1994, dated 2002).

Test system: Lewis rats
Assay: Induction of EAE by peptide analog
Assay type: in vivo, rat
Experimental: In addition, as a safety measure, but not essential to this invention, suitable peptide analogs may be tested for direct induction of EAE. As described in detail in Example 2, various amounts of peptide analogs are injected at the base of the tail of rats, and the rats examined daily for signs of EAE. A peptide analog which is not considered to cause EAE has a mean cumulative score of less than or equal to 1 over seven days when about 12 mg/kg or less in complete Freund's adjuvant is injected.
MBP peptide and peptide analogs were dissolved in phosphate-buffered saline (PBS) and emulsified with an equal volume of incomplete Freund's adjuvant supplemented with 4 mg/ml heat-killed Mycobacterium tuberculosis H37Ra in oil (Difco Laboratories, Inc., Detroit, Mich.). Rats were immunized subcutaneously at the base of the tail with 0.1-0.2 ml containing 500 μg of peptide in the emulsion and were monitored for clinical signs daily. EAE was scored on a scale of 0-4, as follows: 0, clinically normal; 1, flaccid tail; 2, hind limb weakness; 3, hind limb paralysis; 4, front and hind limbs affected.
The ability of peptide analogs to cause EAE is assessed in vivo. Rats were injected with MBP (87-99) or h88/A91 peptide analog as described in Example 2. Animals were monitored daily for evidence of EAE. Rats receiving MBP (87-99) had 100% incidence (18/18 rats) of EAE with a mean maximum clinical score of 2.4±0.2. In contrast, 0/12 rats receiving the peptide analog h88/A91 had EAE.

[1] = rats injected with 500 μg peptide in adjuvant

Row | rats with EAE / rats injected [1] | mean maximum clinical score (scale 0-4) | induction of EAE by the peptide (rat, in vivo) | SMILES | incidence of EAE [1] [%]
1 | 18/18 | 2.4±0.2 | – | CC[C@H](C)[C@H](NC(=O)[C@H](CC(N)=O)NC(=O)[C@H](CCCCN)NC(=O)[C@H](Cc1ccccc1)NC(=O)[C@H](Cc1ccccc1)NC(=O)[C@H](Cc1c[nH]cn1)NC(=O)[C@@H](N)C(C)C)C(=O)N[C@H](C(=O)N[C@H](C(=O)N1CCC[C@H]1C(=O)N[C@@H](CCCNC(=N)N)C(=O)N[C@H](C(=O)N1CCC[C@H]1C(=O)O)[C@@H](C)O)[C@@H](C)O)C(C)C [MBP (87-99)] | 100
2 | 0/12 | – | does not induce EAE | CC[C@H](C)[C@H](NC(=O)[C@H](CC(N)=O)NC(=O)[C@H](C)NC(=O)[C@H](Cc1ccccc1)NC(=O)[C@H](Cc1ccccc1)NC(=O)[C@@H](Cc1c[nH]cn1)NC(=O)[C@@H](N)C(C)C)C(=O)N[C@H](C(=O)N[C@H](C(=O)N1CCC[C@H]1C(=O)N[C@@H](CCCNC(=N)N)C(=O)N[C@H](C(=O)N1CCC[C@H]1C(=O)O)[C@@H](C)O)[C@@H](C)O)C(C)C [h88/A91] | –
